Patent publication US20120329761A1, “USE OF TIGECYCLINE FOR TREATMENT OF CANCER” (UNIVERSITY HEALTH NETWORK, priority 2010, published 2012)

Key:
[1] = cited from earlier work
[2] = tested on: Cox-1, Cox-2, and Cox-4 mRNA; experiment: Quantitative RT-PCR of Cox mRNA; assay type: cell-based, human; settings: TEX and primary AML cells, 2.5 μM and 5 μM
Experimental: (§1) FIG. 4. […] (A) Cells from TEX, OCI-AML2 and two primary AML patients were treated with increasing concentrations (2.5 μM and 5 μM) of tigecycline for 36 and 48 hours of tigecycline. Total proteins were extracted and analyzed by western blotting for Cox-1, Cox-2, Cox-4, grp78, XIAP, actin and tubulin. (B) TEX and AML patient cells were treated with increasing concentrations (2.5 μM and 5 μM) of tigecycline. Cox-1, Cox-2, and Cox-4 mRNA expression relative 18S was determined by quantitative RT-PCR. Data is shown as mean±SD. (C) TEX cells were treated with increasing concentrations of tigecycline and chloramphenicol (CAP) for 72 hours. Complex I, II and IV enzyme activity relative to citrate synthase activity was determined as described in materials and methods. (D) Cells from TEX, primary AML patients, and normal donors were treated with increasing concentrations of tigecycline. Mitochondrial membrane potential (Δψ) was determined by staining cells with JC-1 dye, and flow cytometry analysis (Red/Green ratio). Reactive oxygen species generation (ROS) was determined by staining with h2-DCFDA and Dihydroethidium (DHE).

[3] = tested on: Cox-1, Cox-2, Cox-4, grp78, XIAP; experiment: Immunoblotting of mitochondrially and cytosolically translated proteins; assay type: cell-based, human; settings: TEX, OCI-AML2 and two AML patients' cells, 2.5 μM and 5 μM
Experimental: as §1
Total cell lysates were prepared from cells as described previously^32. […] Protein concentrations were measured by the DC Protein assay. […]

TEX cells = experiment: ROS generation, DCF-DA and DHE staining; assay type: cell-based, human; settings: time-points up to 24 hours
Experimental: as §1
A byproduct of the mitochondrial enzyme activities of the electron transport chain is the generation of reactive oxygen species (ROS). […] Therefore, the role of tigecycline on ROS generation in leukemia cells by analyzing hydrogen peroxide ions (H2O2) using a dichlorofluorescein dye (DCF-DA), and superoxide anions using dihydroethidium (DHE) was examined.

primary human AML cells = assay type: in vivo, NOD-SCID mice; settings: 100 mg/kg i.p. daily for three weeks, vs vehicle control
Experimental: FIG. 3. Tigecycline has anti-leukemia activity in vivo. (A, B) Human leukemia (OCI-AML2) were injected subcutaneously into the flank of SCID mice. Seven days after injection, once tumors were palpable, mice were treated with tigecycline (50 mg/kg or 100 mg/kg twice daily by i.p. injection) or vehicle control (n=10 per group). Fourteen days after injection of cells, mice were sacrificed, tumors excised and the volume and mass of the tumors were measured. The tumor mass and the mean volume+SD are shown. Differences in tumor volume and mass were analyzed by an unpaired t-test: * p<0.001. (C) Tumours from two control mice, and three tigecycline-treated mice were excised after 5 days of treatment and total proteins were extracted and analyzed by western blotting for Cox-1, Cox-2, Cox-4, and tubulin. […] Following treatment, human leukemia cell engraftment in the injected right femur was measured by FACS analysis for human CD45^+CD19^−CD33^+ cells. […] Six weeks later, human leukemia cell engraftment in the injected right femur was measured by FACS analysis for human CD45^+CD19^−CD33^+ cells. […]
To assess tigecycline in mouse models of primary AML, primary human AML cells were isolated form a fresh peripheral blood sample from a patient with AML. A frozen aliquot was thawed, counted and resuspended in PBS. […]

CN(C)c1cc(NC(=O)CNC(C)(C)C)c(O)c2c1C[C@H]1C[C@H]3[C@H](N(C)C)C(O)=C(C(N)=O)C(=O)[C@@]3(O)C(O)=C1C2=O [tigecycline]
toxicity ([1]; 50 mg intravenously every 12 hours): without significant toxicity
half life in humans ([1]; humans): 27 h
tolerability ([1]; intravenous doses of 300 mg): well tolerated save for mild nausea
Cox-1, Cox-2, Cox-4 mRNA expression relative 18S [2]: preferential increased mRNA expression of mitochondrial-encoded genes Cox-1, Cox-2, over the nuclear-encoded gene Cox-4
expression of nuclear-encoded proteins XIAP or grp78 [3]: did not alter
expression of Cox subunit proteins ([3]; 36 and 48 hours): preferential decrease of mitochondrially-translated subunits I and II, over nuclear-translated subunit IV
ROS generation (TEX cells): no observed increase in ROS generation
engraftment of human AML cells (CD45+CD33+CD19-) in marrow (primary human AML cells): significantly decreased
